For assay [1], the system named is M. tuberculosis. As to the kind of experiment: microbe, parasite or virus in culture. Format: cell-based.
Assay [2] concerns the target T1, alanine racemase enzyme from S. aureus (Staphylococcus aureus, UniProt P63479).
T1 sequence (P63479 1-382): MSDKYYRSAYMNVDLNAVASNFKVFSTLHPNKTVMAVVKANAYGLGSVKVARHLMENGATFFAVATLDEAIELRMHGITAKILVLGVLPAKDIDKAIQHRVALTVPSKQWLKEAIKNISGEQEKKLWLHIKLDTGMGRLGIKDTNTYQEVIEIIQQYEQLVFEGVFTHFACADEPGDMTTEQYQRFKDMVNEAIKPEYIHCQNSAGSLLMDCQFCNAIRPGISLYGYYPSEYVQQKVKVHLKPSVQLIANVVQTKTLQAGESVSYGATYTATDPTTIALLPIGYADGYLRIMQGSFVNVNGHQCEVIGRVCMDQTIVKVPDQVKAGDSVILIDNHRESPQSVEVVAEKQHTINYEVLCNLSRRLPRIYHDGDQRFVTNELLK
Nature of the assay: biochemical. The settings on record: for inhibition at 2500 µM: read-out: In % (percent inhibition of alanine racemase).

Assay [3] addresses alanine racemase enzyme from E. Coli (Escherichia coli, UniProt P0A6B4). As to the kind of experiment: biochemical. The following applies: for inhibition at 2500 µM: read-out: In % (percent inhibition of alanine racemase).
For assay [4], the target named is alanine racemase enzyme from P. aeruginosa (Pseudomonas aeruginosa, UniProt Q9HTQ2, A178S/N326M/S138R/S262R). As to the kind of experiment: biochemical. The settings on record: for inhibition at 2500 µM: read-out: In % (percent inhibition of alanine racemase).
The test system of another assay is S. aureus. As to the kind of experiment: microbe, parasite or virus in culture. Format: cell-based.
Assay [5] concerns M. tuberculosis. Format: cell-based.
Assay [6] deals with alanine racemase enzyme from M. tuberculosis (Mycobacterium tuberculosis, UniProt P9WQA9, DEL103-104). Format: biochemical.
In another assay the test system is E. Coli. As to the kind of experiment: microbe, parasite or virus in culture. Format: cell-based.
[7] abbreviates: Mycobacterium tuberculosis, MGIT Assay, read-out: MIC.
Setting [8] is: S. aureus ALR, % Inhibition at 2.5 mM.
Setting [9] is: E. Coli ALR, % Inhibition at 2.5 mM.
Setting [10] is: P. aeruginosa ALR, % Inhibition at 2.5 mM.
Setting [11] is: P. aeruginosa ALR, read-out: Ki.
Where [12] appears, read: Staphylococcus aureus, read-out: MIC.
Where [13] appears, read: TB Assay of Hydroxamate Candidates, DMSO control 7, Water control 8.
[14] abbreviates: Escherichia coli, read-out: MIC.

Values after ≈ are worked out from the molar mass of the structure shown. Where a name gives a salt, the structure may show the parent alone. Read-outs that look alike come from different tables or passages of the source.

alanine racemase enzyme from M. tuberculosis, sequence (P9WQA9 whole entry, looked up, stated change not applied): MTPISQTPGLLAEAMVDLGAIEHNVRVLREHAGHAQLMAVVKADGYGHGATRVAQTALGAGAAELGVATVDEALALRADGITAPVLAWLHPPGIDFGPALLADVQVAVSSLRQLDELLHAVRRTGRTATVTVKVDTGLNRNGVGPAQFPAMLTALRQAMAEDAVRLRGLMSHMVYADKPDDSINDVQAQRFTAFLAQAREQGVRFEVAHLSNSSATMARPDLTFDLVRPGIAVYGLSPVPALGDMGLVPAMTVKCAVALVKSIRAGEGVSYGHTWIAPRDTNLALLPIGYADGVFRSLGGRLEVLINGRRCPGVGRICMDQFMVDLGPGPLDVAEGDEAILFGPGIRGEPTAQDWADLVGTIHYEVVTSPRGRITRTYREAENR
alanine racemase enzyme from E. Coli, sequence (P0A6B4 whole entry): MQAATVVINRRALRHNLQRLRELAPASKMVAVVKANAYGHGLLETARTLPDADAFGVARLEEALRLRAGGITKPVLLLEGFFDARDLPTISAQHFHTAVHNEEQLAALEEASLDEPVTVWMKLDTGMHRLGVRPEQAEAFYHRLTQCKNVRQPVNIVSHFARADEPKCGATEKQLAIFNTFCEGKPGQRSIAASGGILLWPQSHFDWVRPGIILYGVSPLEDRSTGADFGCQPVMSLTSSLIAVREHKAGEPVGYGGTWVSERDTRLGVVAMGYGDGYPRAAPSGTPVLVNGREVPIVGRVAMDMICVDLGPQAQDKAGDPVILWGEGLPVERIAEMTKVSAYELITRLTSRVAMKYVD
alanine racemase enzyme from P. aeruginosa, sequence (Q9HTQ2 whole entry S138R/A178S/S262R/N326M): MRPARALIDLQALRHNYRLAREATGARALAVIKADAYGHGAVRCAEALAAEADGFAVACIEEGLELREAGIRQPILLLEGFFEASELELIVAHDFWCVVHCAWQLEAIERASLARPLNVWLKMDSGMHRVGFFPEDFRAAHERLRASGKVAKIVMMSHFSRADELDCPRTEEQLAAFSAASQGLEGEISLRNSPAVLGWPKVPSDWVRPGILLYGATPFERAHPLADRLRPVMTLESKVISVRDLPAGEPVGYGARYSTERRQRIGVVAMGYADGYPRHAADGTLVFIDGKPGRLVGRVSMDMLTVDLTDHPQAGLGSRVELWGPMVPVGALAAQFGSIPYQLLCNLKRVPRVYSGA

Consider `N[C@@H]1CON=C1O` [D-cycloserine, reference compound], for which the results for the MIC in the assay on M. tuberculosis [1] (setting [7]) and with S. aureus (setting [12]) were below 12.5 µg/mL and 0.2 mM (≈ 20.4 µg/mL), respectively. Moreover, the figures for the inhibition at 2500 µM in assay [2] (setting [8]), in assay [3] (setting [9]) and in assay [4] (setting [10]) were 94%, 93% and 95%, respectively. Moreover, the Ki in assay [2] (S. aureus ALR, read-out: Ki) was found to be 10 µM; in assay [3] (E. Coli ALR, read-out: Ki) it was 10 µM; in assay [4] (setting [11]), 10 µM. The “Days of Detection” value with M. tuberculosis [5] (setting [13]) was above 40 days. For the same compound, the “% In in TB-ALR-assay” value in assay [6] came to 96%. The “In % (percent inhibition of alanine racemase)” value in assay [6] is 93%.
In the case of `NC(=O)C(=O)NO` [H2NC(O)C(O)NHOH, N-Hydroxyoxalamide], the MIC in the assay on M. tuberculosis [1] (setting [7]) is 50 µg/mL (≈ 480 µM); with E. Coli (setting [14]), above 5 mM; in the assay on S. aureus (setting [12]), above 5 mM. The figures for the inhibition at 2500 µM in assay [2] (setting [8]), in assay [3] (setting [9]) and in assay [4] (setting [10]) were 97%, 97 ± 4% and 99 ± 4%, respectively. The Ki is 17 µM in assay [2] (S. aureus ALR, read-out: Ki); 52 µM in assay [3] (E. Coli ALR, read-out: Ki); 16 µM in assay [4] (setting [11]). For the same compound, the “Days of Detection” value with M. tuberculosis [5] (setting [13]) is 32 days. Besides, the “% In in TB-ALR-assay” value in assay [6] was determined as 93%. Besides, in assay [6], the “In % (percent inhibition of alanine racemase)” value came out at 93 ± 8%.
Regarding `NCC(=O)NO` [H2NCH2C(O)NHOH, glycine hydroxamic acid], the MIC with M. tuberculosis [1] (setting [7]) was 50 µg/mL (≈ 555 µM); against E. Coli, above 5 mM; in the assay with S. aureus, above 0.5 mM. Also, the “In % (percent inhibition of alanine racemase)” value is recorded as 91 ± 3% in assay [2] (setting [8]), 90 ± 5% in assay [3] (setting [9]), 94 ± 1% in assay [4] (setting [10]) and 100 ± 1% in assay [6]. Further, the Ki was found to be 90 µM in assay [2] (S. aureus ALR, read-out: Ki); 39 µM in assay [3] (E. Coli ALR, read-out: Ki); 65 µM in assay [4] (setting [11]). Further, the “Days of Detection” value in the assay with M. tuberculosis [5] (setting [13]) was above 40 days. The “% In in TB-ALR-assay” value in assay [6] came to 100%.
As for `NC(=O)OCC(N)C(=O)NO` (centres unmarked) [H2NCH(CH2OCONH2)C(O)NILIOH], the inhibition at 2500 µM in assay [2] (setting [8]) turned out to be 93 ± 4%; in assay [3] (setting [9]), 96 ± 8%; in assay [4] (setting [10]) it was 94 ± 5%. The Ki came to 56 µM in assay [2] (S. aureus ALR, read-out: Ki); 8 µM in assay [3] (E. Coli ALR, read-out: Ki); 30 µM in assay [4] (setting [11]). The MIC with E. Coli (setting [14]) and with S. aureus (setting [12]) was above 5 mM each time. Besides, in assay [6], the “In % (percent inhibition of alanine racemase)” value was found to be 97 ± 5%.
`NC(CO)C(=O)NO` (centres unmarked) [H2NCH(CH2OH)C(O)NHOH]: the figures for the MIC in the assay on M. tuberculosis [1] (setting [7]), with E. Coli (setting [14]) and with S. aureus (setting [12]) were 100 µg/mL (≈ 833 µM), above 5 mM and above 5 mM, respectively. Also, the values for the inhibition at 2500 µM in assay [2] (setting [8]), in assay [3] (setting [9]) and in assay [4] (setting [10]) were 19 ± 8%, 0% and 28 ± 5%, respectively. Besides, the Ki in assay [2] (S. aureus ALR, read-out: Ki) stood at 7200 µM; in assay [4] (setting [11]), 5100 µM. The “Days of Detection” value in the assay with M. tuberculosis [5] (setting [13]) was 21.5 days. Also, the “% In in TB-ALR-assay” value in assay [6] worked out at 33%. Besides, the “In % (percent inhibition of alanine racemase)” value in assay [6] is reported as 33 ± 8%.
Consider `NCC(=O)NO` [H2NOH2G(O)NHOH], for which the “In % (percent inhibition of alanine racemase)” value is 92 ± 3% in assay [2] (setting [8]), 90 ± 4% in assay [3] (setting [9]), 90 ± 2% in assay [4] (setting [10]) and 100 ± 2% in assay [6]. Further, the Ki in assay [2] (S. aureus ALR, read-out: Ki) worked out at 34 µM; in assay [3] (E. Coli ALR, read-out: Ki), 75 µM; in assay [4] (setting [11]), 33 µM. Moreover, the MIC against E. Coli and against S. aureus was above 5 mM in each case.
With `Cl.NCC(=O)NO` [HCl•H2NCH2C(O)NHOH, Glycine Hydroxamic Acid Hydrochloride], the MIC against M. tuberculosis [1] (Mycobacterium tuberculosis) is 200 µg/mL; against E. Coli (Escherichia coli), above 5 mM; with S. aureus it was above 5 mM. The Ki in assay [2] (Ki) turned out to be 217 µM; in assay [3] (Ki), 268 µM; in assay [4] (Ki), 201 µM. The inhibition at 2500 µM in assay [2] was found to be 95 ± 1%; in assay [3] it was 88 ± 4%; in assay [4], 114 ± 14%. In addition, the “Days of Detection” value with M. tuberculosis [5] was found to be 16.5 days. Also, in assay [6], the “% In in TB-ALR-assay” value is 100%. For the same compound, the “In % (percent inhibition of alanine racemase)” value in assay [6] turned out to be 105 ± 6%.
For the compound `C[C@@H](N)C(=O)NO` [Hcl•H2NCH(CH3)C(O)NHOH, D-Alanine Hydroxamic Acid Hydrochloride], the Ki in assay [2] (Ki) turned out to be 2680 µM; in assay [3] (Ki), 5200 µM; in assay [4] (Ki) it was 1010 µM. In addition, the inhibition at 2500 µM was 33 ± 6% in assay [2], 35 ± 7% in assay [3] and 29 ± 6% in assay [4]. Also, the MIC against E. Coli (Escherichia coli) and with S. aureus (Staphylococcus aureus) was above 5 mM throughout.
Regarding `CC(N)C(=O)NO` (centres unmarked) [HzNGH(~Ha)G(O)NHOH], the inhibition at 2500 µM in assay [2] (setting [8]) is 57 ± 4%; in assay [3] (setting [9]) it was 58 ± 2%; in assay [4] (setting [10]) it was 66 ± 3%. Further, the Ki in assay [2] (S. aureus ALR, read-out: Ki) amounted to 810 µM; in assay [3] (E. Coli ALR, read-out: Ki) it was 756 µM; in assay [4] (setting [11]), 656 µM. Besides, the MIC in the assay on E. Coli (setting [14]) and in the assay on S. aureus (setting [12]) was above 5 mM each time. In assay [6], the “In % (percent inhibition of alanine racemase)” value came to 48 ± 9%.
`CONC(=O)CN.O=C(O)C(F)(F)F` [TFA•H2NCH2C(O)NHOCH3, O-Methylglycine Hydroxamic Acid Trifluoroacetic Acid]: the MIC with M. tuberculosis [1] (setting [7]) was 50 µg/mL; in the assay on E. Coli (setting [14]) it was above 5 mM; in the assay with S. aureus (setting [12]), above 5 mM. Further, the inhibition at 2500 µM stood at 47% in assay [2] (setting [8]), 67% in assay [3] (setting [9]) and 55% in assay [4] (setting [10]). For the same compound, the Ki in assay [2] (S. aureus ALR, read-out: Ki) was found to be 1850 µM; in assay [3] (E. Coli ALR, read-out: Ki), 1340 µM; in assay [4] (setting [11]), 1510 µM. Besides, the “Days of Detection” value in the assay with M. tuberculosis [5] (setting [13]) is above 40 days. Also, the “% In in TB-ALR-assay” value in assay [6] is 66%. Also, the “In % (percent inhibition of alanine racemase)” value in assay [6] was found to be 66%.
For `NCC(=O)NO` [TFA•H2NCH2G(O)NHOH, glycine hydroxamic trifluoracetic acid], the inhibition at 2500 µM in assay [2] (setting [8]) was determined as 99 ± 3%; in assay [3] (setting [9]) it was 94 ± 4%. In addition, the Ki in assay [2] (S. aureus ALR, read-out: Ki) amounted to 23 µM; in assay [3] (E. Coli ALR, read-out: Ki), 78 µM; in assay [4] (setting [11]), 20 µM. Besides, the results for the “In % (percent inhibition of alanine racemase)” value in assay [4] (setting [10]) and in assay [6] were 112 ± 7% and 104 ± 4%, respectively. For the same compound, the MIC in the assay on E. Coli and in the assay with S. aureus was above 5 mM each time.
On to “N,O-Methylglycine Hydroxamic Acid Trifluoroacetic Acid [TFA•H2NCH2C(O)N(CH3)OCH3]”, for which the MIC against M. tuberculosis [1] is above 200 µg/mL; against E. Coli it was above 5 mM; against S. aureus, above 5 mM. Besides, the “In % (percent inhibition of alanine racemase)” value in assay [2] (setting [8]) is recorded as 66 ± 3%; in assay [3] (setting [9]), 49 ± 2%; in assay [4] (setting [10]) it was 68 ± 5%; in assay [6], 66 ± 4%. Moreover, the Ki came out at 590 µM in assay [2] (S. aureus ALR, read-out: Ki); 875 µM in assay [3] (E. Coli ALR, read-out: Ki); 633 µM in assay [4] (setting [11]); 644 µM in assay [6]. Moreover, the “Days of Detection” value in the assay on M. tuberculosis [5] was 9 days. Moreover, the “% In in TB-ALR-assay” value in assay [6] came out at 66%.
For “N-Benzylglycine Hydroxamic Acid [PhCH2NHCH2C(O)NHOH]”, the figures for the MIC in the assay on M. tuberculosis [1] (MGIT Assay), in the assay on E. Coli and against S. aureus were 50 µg/mL, above 5 mM and above 5 mM, respectively. The “In % (percent inhibition of alanine racemase)” value was found to be 53 ± 13% in assay [2] (setting [8]), 0.58 ± 3% in assay [3] (setting [9]), 39 ± 9% in assay [4] (setting [10]) and 88 ± 3% in assay [6]. The Ki stood at 1980 µM in assay [2] (S. aureus ALR, read-out: Ki); 1840 µM in assay [3] (E. Coli ALR, read-out: Ki); 1240 µM in assay [4] (setting [11]); 519 µM in assay [6]. The “Days of Detection” value in the assay on M. tuberculosis [5] (setting [13]) stood at 18.5 days. Further, the “% In in TB-ALR-assay” value in assay [6] came out at 88%.

What is called inhibition is the relative decrease from the control value, in per cent. As usually defined, the Ki is the equilibrium dissociation constant of an inhibitor or competing ligand from its target.
